Columns and labels:
Assay type in all cases: physicochemical
[1] = UV/Vis spectral properties (UVA, UVB and visible absorption), Cary-50 spectrophotometer; conditions: for Absorption spectra compared to oxybenzone: 5 mM (N-Boc-Imine-6 also 0.05 mM), FIG. 3; for UV absorption properties compared to oxybenzone: 5 mM or 0.05 mM, FIG. 1
Experimental: Imine-1, Imine-2, and Imine-3 were synthesized, purified, and isolated (see above). All three compounds were separately dissolved in acetonitrile to a final concentration of 5 mM (FIG. 1) or 0.05 mM (FIG. 1, inset) and analyzed by UV/Vis (Cary-50 Spectrophotomer). The spectral properties were compared to oxybenzone in acetonitrile.
Carbamate-1, first described in U.S. Pat. No. 5,490,980A, was synthesized, purified, and isolated (see above). Carbamate-1 was dissolved in acetonitrile to a final concentration of 0.05 mM and analyzed by UV/Vis (Cary-50 Spectrophotomer). The spectral properties were compared to oxybenzone in acetonitrile at a final concentration of 0.05 mM.
Imine-4, Imine-5, and N-Boc-Imine-6 were synthesized, purified, and isolated (see above). All three compounds were separately dissolved in acetonitrile to a final concentration of 5 mM (FIG. 3) and analyzed by UV/Vis (Cary-50 Spectrophotomer). N-Boc-Imine-6 was diluted in acetonitrile to a final concentration of 0.05 mM (FIG. 3, inset) and analyzed by UV/Vis. […] Spectral properties were compared to oxybenzone in acetonitrile at the same concentration.
To understand the solution stability of the Boc-protected imines in protic solvent, N-Boc-Imine-6 was prepared in ethanol in the presence of catalytic glacial acetic acid. Briefly, to a solution of oxybenzone (0.10 g, 0.438 mmol, 1 eq) and N-Boc-1,6-hexanediamine (0.094 g, 0.43 mmol, 1 eq) in ethanol (0.3 mL) was added catalytic glacial acetic acid (1 μL). The reaction mixture was agitated at 900 rpm at 70° C. for 16 hr and monitored by LCMS. […] The reaction was then diluted in ethanol to final concentration of 0.04 mM and analyzed by UV/Vis spectroscopy.
N-Boc-Imine-8 and Imine-8 was synthesized, purified, and isolated (see above). N-Boc-Imine-8 and Imine-8 were dissolved in ethanol to a final concentration of 0.032 mM and 8 mM, respectively (FIG. 6) and analyzed by UV/Vis. (Cary-50 Spectrophotomer). Spectral properties were compared to sulisobenzone in ethanol at similar concentration.
Imine-10 was first dissolved in methyl tert-butyl ether and then diluted in ethanol to a final concentration of 5 mM and 0.04 mM (FIG. 7) and analyzed by UV/Vis. (Cary-50 Spectrophotomer). Spectral properties were compared to oxybenzone at similar concentration.

[2] = Solution stability of Boc-protected imine in protic solvent (ethanol), LCMS and UV/Vis; conditions: 70° C., over 24 hours, catalytic glacial acetic acid
Experimental: To understand the solution stability of the Boc-protected imines in protic solvent, N-Boc-Imine-6 was prepared in ethanol in the presence of catalytic glacial acetic acid. Briefly, to a solution of oxybenzone (0.10 g, 0.438 mmol, 1 eq) and N-Boc-1,6-hexanediamine (0.094 g, 0.43 mmol, 1 eq) in ethanol (0.3 mL) was added catalytic glacial acetic acid (1 μL). The reaction mixture was agitated at 900 rpm at 70° C. for 16 hr and monitored by LCMS. Full reaction of the starting material to a single product peak was observed by LCMS indicating completion. The reaction was then diluted in ethanol to final concentration of 0.04 mM and analyzed by UV/Vis spectroscopy. […] Additionally, the Boc-protecting group remained intact throughout the reaction and UV/Vis analysis.

[3] = Solubility in acetonitrile

In the case of `CCCCCCOC(=O)c1ccccc1/C(=N/CCCCCCN)c1cccc(N(CC)CC)c1O` [Imine-9], the “Absorbance spectra of DHHB-derived imines” value ([1]; data not shown) is reported as “red shift of the absorbance spectra, which extends to the visible region”.

For `COc1ccc(/C(=N/C(CCC(N)=O)C(=O)O)c2ccccc2)c(O)c1` (centres unmarked) [Imine-5], the “Absorption spectra compared to oxybenzone” value ([1]; acetonitrile) was “encompassed the UVA-1, UVA-2, and UVB regions as well as the visible region of the spectrum (greater than 400 nm)”.

With `COc1ccc(/C(=N/O)c2ccccc2)c(O)c1` [Imine-3] the “UV absorption properties compared to oxybenzone” value ([1]; acetonitrile) was “loss in the UVA blocking and reduction in UVB blocking”.

With `COc1cc(O)c(/C(=N\CCCCCCN)c2ccccc2)cc1S(=O)(=O)O` [Imine-8] the “Absorbance compared to sulisobenzone” value ([1]; ethanol, N-Boc-Imine-8 0.032 mM, Imine-8 8 mM, FIG. 6) was “retained absorbance in the UVB region and extended absorbance into the UVA region”.

For `COc1ccc(C(=O)c2ccccc2)c(OC(=O)NCCCCCCNC(=O)OC(C)(C)C)c1` [Carbamate-1, reference compound], the “UV filter properties compared to oxybenzone” value ([1]; acetonitrile, 0.05 mM, FIG. 2) was “UVA blocking was reduced”.

With `COc1ccc(/C(=N/CCCCCCNC(=O)OC(C)(C)C)c2ccccc2)c(O)c1` [N-Boc-Imine-6] the “Absorption spectra compared to oxybenzone” value ([1]; acetonitrile) was “encompassed the UVA-1, UVA-2, and UVB regions as well as the visible region of the spectrum (greater than 400 nm)”, the “Absorption spectrum in ethanol” value ([1]; ethanol, 0.04 mM, reaction mixture diluted, FIG. 4) was “encompasses the UVA and UVB regions as well as the visible region of the spectrum (greater than 400 nm)” and the “Solution stability without reversion to starting ketone and amine” value [2] was “stable”.

In the case of `COc1ccc(/C(=N/Cc2ccccc2)c2ccccc2)c(O)c1` [Imine-1], the “UV absorption properties compared to oxybenzone” value ([1]; acetonitrile) is reported as “improved both UVA-1, UVA-2, and UVB absorption properties”.

With `COc1ccc(/C(=N/CCCCCCN)c2ccccc2)c(O)c1` [Imine-6] the Solubility in acetonitrile [3] was “poor solubility”.

In the case of `COc1ccc(/C(=N/c2ccccc2)c2ccccc2)c(O)c1` [Imine-2], the “UV absorption properties compared to oxybenzone” value ([1]; acetonitrile) is reported as “improved both UVA-1, UVA-2, and UVB absorption properties”.

Source: US20250017834A1, “SUNSCREEN COMPOSITIONS COMPRISING IMINE ANALOGS OF A SUNSCREEN COMPRISING A KETONE” (Curie Co. Inc., priority 2020, published 2025)
